The record followed here is patent publication US20070249639A1, “Use of 9H-Purine-2,6-Diamine Derivatives in the Treatment of Proliferative Diseases and Novel 9H-Purine-2,6-Diamine Derivatives” (priority 2004, published 2007).

Where only a bound is given, the exact number is not on record here.

Holding throughout (format): biochemical
The target of one assay is ABL (Homo sapiens, UniProt P00519). In words: Kinase panel inhibition. Conditions: @ 10 μM inhibitor; read-out: ABL kinase inh. On the procedure: (§1) Percentage Inhibition of the Kinase at 10 μM Concentration of the Inhibitor
(§2) Paul W. Manley, Pascal Furet, Guido Bold, Josef Brüggen, Jürgen Mestan, Thomas Meyer, Christian R. Schnell, and Jeanette Wood; Anthranilic Acid Amides: A Novel Class of Antiangiogenic VEGF Receptor Kinase Inhibitors J. Med. Chem. 2002, 45, 5687-5693. Wan, Yongqin; Hur, Wooyoung; Cho, Charles Y.; Liu, Yi; Adrian, Francisco J.; Lozach, Olivier; Bach, Stephane; Mayer, Thomas; Fabbro, Doriano; Meijer, Laurent; Gray, Nathanael S; Synthesis and Target Identification of Hymenialdisine Analogs Chemistry & Biology 2004, 11(2), 247-259.

A further assay concerns the target IGF (Homo sapiens, UniProt P08069). Nature of the assay: Kinase panel inhibition. Conditions: @ 10 μM inhibitor; read-out: IGF kinase inh. On the procedure:
as §1, §2

For another assay, the target named is Flt-4 (Homo sapiens, UniProt P35916). Nature of the assay: Kinase panel inhibition. Conditions: @ 10 μM inhibitor; read-out: Flt-4 kinase inh. The procedure: as §1, §2
Chain of Flt-4 (P35916 25-1363, species assumed): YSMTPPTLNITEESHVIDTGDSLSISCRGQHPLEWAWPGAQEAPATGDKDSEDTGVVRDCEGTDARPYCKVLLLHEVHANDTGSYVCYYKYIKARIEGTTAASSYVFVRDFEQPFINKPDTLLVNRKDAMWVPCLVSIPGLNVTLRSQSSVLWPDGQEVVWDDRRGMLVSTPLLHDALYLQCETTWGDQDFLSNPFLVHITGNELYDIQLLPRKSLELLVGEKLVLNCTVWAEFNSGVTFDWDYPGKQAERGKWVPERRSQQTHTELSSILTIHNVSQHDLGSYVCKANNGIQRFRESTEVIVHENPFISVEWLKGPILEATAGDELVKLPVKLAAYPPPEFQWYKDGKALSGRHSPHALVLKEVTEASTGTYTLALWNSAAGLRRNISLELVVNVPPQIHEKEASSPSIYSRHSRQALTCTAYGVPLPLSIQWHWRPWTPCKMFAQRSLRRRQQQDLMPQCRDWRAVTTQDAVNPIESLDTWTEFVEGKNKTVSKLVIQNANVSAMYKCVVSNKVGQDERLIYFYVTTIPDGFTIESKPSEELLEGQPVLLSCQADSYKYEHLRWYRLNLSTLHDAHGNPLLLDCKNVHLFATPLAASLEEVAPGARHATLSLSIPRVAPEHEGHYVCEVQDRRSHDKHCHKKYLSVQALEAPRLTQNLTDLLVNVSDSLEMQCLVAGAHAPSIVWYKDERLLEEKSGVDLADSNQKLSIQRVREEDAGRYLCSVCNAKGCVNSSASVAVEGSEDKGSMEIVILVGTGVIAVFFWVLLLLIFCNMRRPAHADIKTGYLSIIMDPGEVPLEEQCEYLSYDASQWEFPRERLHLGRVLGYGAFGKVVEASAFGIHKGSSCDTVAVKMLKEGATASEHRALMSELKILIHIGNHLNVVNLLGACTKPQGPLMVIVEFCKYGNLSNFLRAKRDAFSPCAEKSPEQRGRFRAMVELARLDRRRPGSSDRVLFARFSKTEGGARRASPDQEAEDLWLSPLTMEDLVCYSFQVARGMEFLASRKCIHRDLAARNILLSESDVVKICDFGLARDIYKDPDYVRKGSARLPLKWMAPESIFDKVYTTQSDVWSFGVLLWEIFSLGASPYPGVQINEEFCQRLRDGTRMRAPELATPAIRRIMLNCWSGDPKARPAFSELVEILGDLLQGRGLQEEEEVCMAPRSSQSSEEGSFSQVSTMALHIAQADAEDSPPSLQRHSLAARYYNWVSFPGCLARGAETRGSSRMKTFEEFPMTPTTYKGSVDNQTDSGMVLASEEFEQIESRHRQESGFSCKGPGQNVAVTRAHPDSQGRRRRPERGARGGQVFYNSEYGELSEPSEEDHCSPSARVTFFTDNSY
Another assay has as its target MET (Homo sapiens, UniProt P08581). In words: Kinase panel inhibition. Conditions: @ 10 μM inhibitor; read-out: MET kinase inh. On the procedure:
as §1, §2

For the next assay, the target named is PKB (Homo sapiens, UniProt P31749). Nature of the assay: Kinase panel inhibition. As to conditions: @ 10 μM inhibitor; read-out: PKB kinase inh. On the procedure:
as §1, §2

The target of another assay is HER2 (Homo sapiens, UniProt P04626). In words: Kinase panel inhibition. As to conditions: @ 10 μM inhibitor; read-out: HER2 kinase inh. The procedure: as §1, §2
Chain of HER2 (P04626 23-1255, species assumed): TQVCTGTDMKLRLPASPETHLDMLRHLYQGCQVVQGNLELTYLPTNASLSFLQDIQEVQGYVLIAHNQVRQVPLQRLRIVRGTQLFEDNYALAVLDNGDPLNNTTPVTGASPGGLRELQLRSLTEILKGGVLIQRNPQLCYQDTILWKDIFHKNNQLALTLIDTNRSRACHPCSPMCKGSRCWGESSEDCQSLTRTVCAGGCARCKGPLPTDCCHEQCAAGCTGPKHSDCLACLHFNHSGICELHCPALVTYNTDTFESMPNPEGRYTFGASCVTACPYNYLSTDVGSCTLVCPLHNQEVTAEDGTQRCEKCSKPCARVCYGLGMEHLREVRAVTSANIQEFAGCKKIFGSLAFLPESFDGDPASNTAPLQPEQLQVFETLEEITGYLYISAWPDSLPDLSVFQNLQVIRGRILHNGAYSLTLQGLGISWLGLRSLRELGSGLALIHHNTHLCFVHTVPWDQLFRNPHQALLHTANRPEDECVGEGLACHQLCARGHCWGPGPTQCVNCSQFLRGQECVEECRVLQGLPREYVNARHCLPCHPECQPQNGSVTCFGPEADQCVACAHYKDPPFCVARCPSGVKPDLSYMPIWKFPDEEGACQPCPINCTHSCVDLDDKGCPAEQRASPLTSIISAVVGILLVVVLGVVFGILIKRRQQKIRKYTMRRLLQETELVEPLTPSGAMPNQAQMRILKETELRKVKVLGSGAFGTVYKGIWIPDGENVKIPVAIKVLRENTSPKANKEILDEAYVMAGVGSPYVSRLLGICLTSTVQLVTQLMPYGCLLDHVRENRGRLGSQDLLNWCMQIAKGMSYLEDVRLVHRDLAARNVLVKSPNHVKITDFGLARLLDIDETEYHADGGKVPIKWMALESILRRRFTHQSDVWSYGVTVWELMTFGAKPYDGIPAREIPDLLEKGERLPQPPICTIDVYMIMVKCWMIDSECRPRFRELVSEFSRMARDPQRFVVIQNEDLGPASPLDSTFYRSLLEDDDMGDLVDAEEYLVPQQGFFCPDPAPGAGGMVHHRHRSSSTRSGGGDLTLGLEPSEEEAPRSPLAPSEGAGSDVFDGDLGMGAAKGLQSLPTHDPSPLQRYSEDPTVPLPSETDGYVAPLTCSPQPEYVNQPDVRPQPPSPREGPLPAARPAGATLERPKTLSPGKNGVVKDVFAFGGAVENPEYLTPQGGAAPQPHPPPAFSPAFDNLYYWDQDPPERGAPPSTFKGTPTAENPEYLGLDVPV
For a further assay, the target named is KIT (Homo sapiens, UniProt P10721). Nature of the assay: Kinase panel inhibition. Conditions: @ 10 μM inhibitor; read-out: KIT kinase inh. The procedure:
as §1, §2

In a further assay the target is T1, PDK1 (Homo sapiens, UniProt O15530).
T1 sequence (O15530 1-556): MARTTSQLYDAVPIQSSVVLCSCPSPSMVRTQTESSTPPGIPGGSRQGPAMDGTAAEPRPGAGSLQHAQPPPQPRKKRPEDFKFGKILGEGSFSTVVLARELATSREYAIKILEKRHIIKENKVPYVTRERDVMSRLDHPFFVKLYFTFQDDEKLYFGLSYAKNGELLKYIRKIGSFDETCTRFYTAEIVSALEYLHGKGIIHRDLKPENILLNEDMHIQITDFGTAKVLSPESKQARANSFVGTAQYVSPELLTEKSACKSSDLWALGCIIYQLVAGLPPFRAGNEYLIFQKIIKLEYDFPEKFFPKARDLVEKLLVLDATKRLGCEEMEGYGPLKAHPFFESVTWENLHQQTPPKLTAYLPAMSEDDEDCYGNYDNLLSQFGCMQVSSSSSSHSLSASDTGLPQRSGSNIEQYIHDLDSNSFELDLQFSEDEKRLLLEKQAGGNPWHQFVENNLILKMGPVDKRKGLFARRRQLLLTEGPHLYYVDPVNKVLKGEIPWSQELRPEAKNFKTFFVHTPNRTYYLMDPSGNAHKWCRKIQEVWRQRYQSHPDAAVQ
In words: Kinase panel inhibition. As to conditions: @ 10 μM inhibitor; read-out: PDK1 kinase inh. On the procedure:
as §1, §2

In another assay the target is Raf-1 (Homo sapiens, UniProt P04049). In words: Kinase panel inhibition. As to conditions: @ 10 μM inhibitor; read-out: Raf-1 kinase inh. On the procedure:
as §1, §2

In the next assay the target is Flt-1 (Homo sapiens, UniProt P17948). In words: Kinase panel inhibition. Conditions: @ 10 μM inhibitor; read-out: Flt-1 kinase inh. The procedure:
as §1, §2

The target of another assay is HER1 (Homo sapiens, UniProt P00533). In words: Kinase panel inhibition. As to conditions: @ 10 μM inhibitor; read-out: HER1 kinase inh. The procedure:
as §1, §2

For another assay, the system named is PKA. In words: Kinase panel inhibition. As to conditions: @ 10 μM inhibitor. The procedure: as §1, §2
Another assay addresses KDR (Homo sapiens, UniProt P35968). In words: Kinase panel inhibition. Conditions: @ 10 μM inhibitor; read-out: KDR kinase inh. The procedure:
as §1, §2

The next assay concerns the target Tek (Homo sapiens, UniProt Q02763). Nature of the assay: Kinase panel inhibition. As to conditions: @ 10 μM inhibitor; read-out: Tek kinase inh. On the procedure:
as §1, §2

For another assay, the target named is T2, human topoisomerase II α (Homo sapiens, UniProt P11388).
T2 construct: purchased Professor Neil Osheroff (Vanderbilt University, Nashville, Tenn., USA)
Nature of the assay: Topoisomerase II ATPase assay (Malachite Green). As to conditions: for inhibition at 10 µM: Percent inhibition @10 μM, Malachite Green assay, read-out: TOPO II inh. (inhibition of the TOPO ATPase activity). On the procedure:
The inhibition of topoisomerase II is measured as follows:
Purified human topoisomerase II α was purchased from Professor Neil Osheroff (Vanderbilt University—Nashville, Tenn., USA).
The pUC18 (Stratagene) plasmid was introduced into Escherichia coil XL-1 (Stratagene) and purified with the HiSpeed Plasmid Purification kit (Qiagen) according to the manufacturer instructions. The purity of the DNA preparations was evaluated spectrophotometrically (OD260/OD280 ratio) and by agarose gel.
Preparation of the Malachite Green Reagent:
Three volumes of 0.045% malachite green (Sigma, catalog no. M-9636) diluted in water are mixed for 20 min at room temperature with one volume of 4.2% ammonium molybdate (Axon Lab AG, catalog no. A-2246) diluted in 4 N HCl. After mixing, Triton X-100 (Merck, catalog no. 1.12298) is added to a final concentration of 0.01%. The solution is filtered at 0.2 μm and stored at room temperature in the dark.
ATP hydrolysis was monitored by measuring the production of inorganic phosphate released during the catalytic cycle of topoisomerase II α with acidic molybdate and malachite green (Lanzetta,et al., An improved assay for nanomole amounts of inorganic phosphate, Anal Biochem 1979;100:95-7). Briefly, human topoisomerase II α is pre-incubated at 37° C. for 10 min in 90 μl reaction buffer (10 mM Tris.HCl pH 7.9, 175 mM KCl, 1 mM EDTA, 2 mM DTT, 5 mM MgCl2, 2.5% glycerol) in the presence of the indicated amount of pUC18 and DMSO in F96 maxisorp Nunclmmuno plates (Nunc). The reaction is initiated by the addition of 10 μl ATP at the indicated concentrations and is carried out for 30 min at 37° C. under constant agitation. The reaction is stopped by the addition of 200 μl molybdate/malachite green solution and the absorbance is immediately measured at 630 nm. The OD630 value is measured in the absence of protein for each ATP concentration (background) is subtracted from the value obtained in the presence of enzyme. A standard curve with inorganic phosphate is used to determine the amount of inorganic phosphate produced during the reaction and to ensure that the measures are in the linear range of the assay. The kinetic parameters of the enzymes are determined from measurements (at least in duplicate) of the initial rates at different ATP concentrations. The data are analyzed with GraFit (Erithacus Software).
The compounds are tested at 10 μM of concentration to determine their inhibition potential given % of inhibition of the TOPO II ATPase activity.
For the determination of the IC50, the procedure is repeated for different concentrations of test compound selected to cover the range of 0% to 100% inhibition and the concentration at which 50% inhibition of topoisomerase II occurs (IC50) for each compound is determined from concentration-inhibition curves in a conventional manner.

In the next assay the test system is FGFR. In words: Kinase panel inhibition. As to conditions: @ 10 μM inhibitor. On the procedure:
as §1, §2

Chain of PKB (P31749 whole entry, species assumed): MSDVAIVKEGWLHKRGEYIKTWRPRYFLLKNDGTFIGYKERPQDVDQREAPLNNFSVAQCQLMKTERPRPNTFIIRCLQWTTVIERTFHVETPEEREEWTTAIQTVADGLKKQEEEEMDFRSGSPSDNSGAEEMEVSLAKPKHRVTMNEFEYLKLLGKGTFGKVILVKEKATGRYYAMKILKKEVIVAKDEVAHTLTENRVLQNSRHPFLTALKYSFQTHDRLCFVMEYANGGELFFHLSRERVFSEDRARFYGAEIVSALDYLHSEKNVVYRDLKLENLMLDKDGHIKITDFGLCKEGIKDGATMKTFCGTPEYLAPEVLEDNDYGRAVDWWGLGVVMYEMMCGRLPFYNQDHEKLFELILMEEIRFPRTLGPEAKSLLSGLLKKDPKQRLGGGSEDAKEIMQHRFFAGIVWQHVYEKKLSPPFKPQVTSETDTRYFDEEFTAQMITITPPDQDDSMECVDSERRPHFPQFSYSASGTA
Chain of KDR (P35968 20-1356, species assumed): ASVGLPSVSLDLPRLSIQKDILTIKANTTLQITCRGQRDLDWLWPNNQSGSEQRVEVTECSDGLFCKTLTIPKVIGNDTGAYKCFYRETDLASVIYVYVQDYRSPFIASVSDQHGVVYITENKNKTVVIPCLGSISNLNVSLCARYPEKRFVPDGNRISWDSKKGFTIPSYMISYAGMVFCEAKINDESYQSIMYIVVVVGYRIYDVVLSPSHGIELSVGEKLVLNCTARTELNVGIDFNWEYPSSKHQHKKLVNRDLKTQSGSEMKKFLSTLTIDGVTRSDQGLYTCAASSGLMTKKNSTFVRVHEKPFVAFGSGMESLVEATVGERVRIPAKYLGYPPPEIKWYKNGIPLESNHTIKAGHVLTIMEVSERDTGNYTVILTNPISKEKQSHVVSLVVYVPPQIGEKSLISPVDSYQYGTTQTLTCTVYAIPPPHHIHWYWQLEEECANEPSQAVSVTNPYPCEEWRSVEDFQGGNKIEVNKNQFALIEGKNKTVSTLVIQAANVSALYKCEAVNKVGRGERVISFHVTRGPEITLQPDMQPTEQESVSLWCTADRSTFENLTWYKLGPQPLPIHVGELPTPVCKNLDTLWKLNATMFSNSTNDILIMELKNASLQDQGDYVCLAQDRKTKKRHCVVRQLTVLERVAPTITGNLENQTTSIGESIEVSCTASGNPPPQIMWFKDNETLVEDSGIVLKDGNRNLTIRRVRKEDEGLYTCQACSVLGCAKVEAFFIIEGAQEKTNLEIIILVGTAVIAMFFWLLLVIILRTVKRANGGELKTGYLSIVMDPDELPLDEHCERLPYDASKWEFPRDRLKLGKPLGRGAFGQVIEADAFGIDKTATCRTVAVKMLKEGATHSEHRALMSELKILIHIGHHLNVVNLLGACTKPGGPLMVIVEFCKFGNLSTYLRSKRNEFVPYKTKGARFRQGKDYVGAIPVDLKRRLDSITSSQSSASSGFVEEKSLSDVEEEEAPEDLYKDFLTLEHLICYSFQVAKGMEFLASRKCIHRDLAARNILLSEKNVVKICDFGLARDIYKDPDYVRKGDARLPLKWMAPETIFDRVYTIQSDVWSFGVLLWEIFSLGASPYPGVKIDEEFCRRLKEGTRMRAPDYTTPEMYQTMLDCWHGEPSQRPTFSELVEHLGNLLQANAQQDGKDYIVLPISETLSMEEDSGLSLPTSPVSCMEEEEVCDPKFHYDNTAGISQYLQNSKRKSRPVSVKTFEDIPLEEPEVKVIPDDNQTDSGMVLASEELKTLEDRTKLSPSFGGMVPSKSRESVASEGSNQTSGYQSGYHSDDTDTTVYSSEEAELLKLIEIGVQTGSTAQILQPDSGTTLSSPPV
Chain of Raf-1 (P04049 whole entry, species assumed): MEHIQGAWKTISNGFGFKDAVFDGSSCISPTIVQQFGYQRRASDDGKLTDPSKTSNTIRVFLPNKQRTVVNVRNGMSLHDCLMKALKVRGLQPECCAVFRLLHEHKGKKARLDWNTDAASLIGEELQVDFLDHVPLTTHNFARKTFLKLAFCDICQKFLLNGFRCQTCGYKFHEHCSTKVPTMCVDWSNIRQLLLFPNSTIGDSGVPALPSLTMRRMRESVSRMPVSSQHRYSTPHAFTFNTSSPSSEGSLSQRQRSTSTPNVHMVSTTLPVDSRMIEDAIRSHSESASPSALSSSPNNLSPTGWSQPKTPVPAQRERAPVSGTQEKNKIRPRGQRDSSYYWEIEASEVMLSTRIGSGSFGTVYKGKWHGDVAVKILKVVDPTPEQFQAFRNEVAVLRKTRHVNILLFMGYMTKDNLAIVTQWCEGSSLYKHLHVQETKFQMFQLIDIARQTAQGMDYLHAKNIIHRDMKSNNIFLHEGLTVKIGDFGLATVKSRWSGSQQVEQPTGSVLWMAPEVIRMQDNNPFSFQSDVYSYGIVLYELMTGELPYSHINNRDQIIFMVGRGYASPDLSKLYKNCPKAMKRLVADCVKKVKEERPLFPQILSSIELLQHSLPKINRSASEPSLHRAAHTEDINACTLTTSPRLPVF

The term IC50 denotes the concentration that inhibits the measured activity by half. A higher IC50 goes with weaker potency. `Cc1nc2c(NC(C)(C)C)nc(Nc3ccc4ncsc4c3)nc2[nH]1` [Example 25, N*2*-Benzothiazol-6-yl-N*6*-tert-butyl-8-methyl-9H-purine-2,6-diamine]: the inhibition at 10 µM is 65 to 80% on ABL; < 50% on IGF; < 50% on Flt-4; < 50% at MET; < 50% on PKB; < 50% on HER2. Moreover, the inhibition at 10 µM is < 50% on KIT; < 50% on PDK1; < 50% on Raf-1; < 50% at Flt-1; < 50% on HER1; 50 to 65% on KDR. The inhibition at 10 µM on Tek was < 50%; at human topoisomerase II α, 65 to 80%. For the same molecule, the PKA kinase inh. result in the assay with PKA is “+ (<65% ≧ 50%)”. Besides, the half-inhibitory concentration (IC50) on human topoisomerase II α worked out at 2.1 µM.
For the molecule `CCc1nc2c(NC(C)(C)C)nc(Nc3ccc4ncsc4c3)nc2[nH]1` [Example 27, N*2*-Benzothiazol-6-yl-N*6*-tert-butyl-8-ethyl-9H-purine-2,6-diamine], the inhibition at 10 µM at ABL is 50 to 65%; on IGF, < 50%; on Flt-4 it was < 50%; at MET, < 50%; on PKB, < 50%; at HER2, < 50%. Also, the inhibition at 10 µM on KIT was < 50%; on PDK1 it was < 50%; on Raf-1 it was < 50%; on Flt-1, < 50%; at HER1, < 50%; on KDR it was 50 to 65%. Moreover, the values for the inhibition at 10 µM at Tek and at human topoisomerase II α were 65 to 80% and ≥ 80%, respectively. At human topoisomerase II α, this molecule had an IC50 of 0.6 µM.
For the molecule `CC(C)(C)Nc1nc(Nc2ccc3ncsc3c2)nc2[nH]cnc12` [Example 14, N*2*-Benzothiazol-6-yl-N*6*-tert-butyl-9H-purine-2,6-diamine], the inhibition at 10 µM was ≥ 80% on ABL; ≥ 80% on IGF; ≥ 80% at Flt-4; ≥ 80% on MET; 50 to 65% on PKB; 65 to 80% at HER2. Further, the inhibition at 10 µM on KIT was ≥ 80%; on PDK1, ≥ 80%; at Raf-1, 65 to 80%; at Flt-1, 65 to 80%; on HER1 it was 65 to 80%; at KDR, ≥ 80%. Further, the inhibition at 10 µM at Tek was ≥ 80%. In addition, the FGFR kinase inh. result in the assay with FGFR is “++ (<80% ≧ 65%)”.
In the case of `CC(C)(C)Nc1nc(Nc2ccc3ncsc3c2)nc2[nH]c(C3CC3)nc12` [Example 41, N*2*-Benzothiazol-6-yl-N*6*-tert-butyl-8-cyclopropyl-9H-purine-2,6-diamine], the inhibition at 10 µM at human topoisomerase II α fell in the range of 65 to 80%.
Same read-out and setting: the same measure for `Cc1nc2ccc(Nc3nc(N4CCN(c5ccccn5)CC4)c4nc[nH]c4n3)cc2s1` [Example 63, (2-Methyl-benzothiazol-6-yl)-[6-(4-pyridin-2-yl-piperazin-1-yl)-9H-purin-2-yl]-amine]: < 50%; for `c1ccc(N2CCN(c3nc(Nc4ccc5nsnc5c4)nc4[nH]cnc34)CC2)nc1` [Example 62, Benzo[1,2,5]thiadiazol-5-yl-[6-(4-pyridin-2-yl-piperazin-1-yl)-9H-purin-2-yl]-amine]: < 50%.
